Literature values as cited in patent US6297274A, “Nonpeptide endothelin antagonists with increased water solubility” (priority 1998, dated 2001).
Where a SMILES comes first, the peptide text is derived from it. [ ]: non-standard residue; d: D form.

Assays:
[1] = test system: ischemic brain injury in rats; conditions: oral; cited from earlier work
[2] = test system: rat hypoxia model of hypertension; conditions: cited from earlier work
[3] = test system: early cerebral vasospasm following subarachnoid hemorrhage (SAH); conditions: in vivo; cited from earlier work
[4] = test system: ET-1 induced bronchoconstriction and tracheal smooth muscle contraction; conditions: allergic sheep; cited from earlier work
[5] = test system: early cerebral vasospasm following SAH in the rat; conditions: cited from earlier work
[6] = test system: vasoconstriction of the basilar artery; conditions: after 7 days, canine two-hemorrhage model; cited from earlier work
liver = conditions: cited from earlier work
small intestinal mucosa = conditions: rats, local intra-arterial; cited from earlier work
[7] = test system: ET-1-induced gastric ulceration; conditions: in vivo; cited from earlier work

**Q.** With `CCCOc1ccc2c(c1)[C@@H](c1ccc(OC)cc1OCCO)[C@H](C(=O)O)[C@H]2c1ccc2c(c1)OCO2` [SB 217242] as the compound, how does the “reduction of ischemic brain injury” value [1] read?
**A.** Reduction of ischemic brain injury in rats was also demonstrated

**Q.** For `CC(C)C[C@@H]1NC(=O)[C@@H](C(C)C)NC(=O)[C@@H]2CCCN2C(=O)[C@@H](CC(=O)O)NC(=O)[C@@H](Cc2c[nH]c3ccccc23)NC1=O` [BQ-123] (cyclo(L[dW][dD]P[dV])), which “pulmonary vascular resistance and pulmonary arterial pressure” value [2] is on record?
**A.** provide protection in a rat hypoxia model of hypertension by lowering the increase in pulmonary vascular resistance and pulmonary arterial pressure

**Q.** And the “early cerebral vasospasm following SAH” value [3]?
**A.** prevent early cerebral vasospasm following subarachnoid hemorrhage (SAH)

**Q.** What about the “ET-1 induced bronchoconstriction and tracheal smooth muscle contraction” value [4] of the same compound?
**A.** shown to block ET-1 induced bronchoconstriction and tracheal smooth muscle contraction in allergic sheep

**Q.** Which “early cerebral vasospasm following SAH” value [5] does the source give for `COc1cccc(Oc2c(NS(=O)(=O)c3ccc(C(C)(C)C)cc3)ncnc2OCCO)c1` [Ro 46-2005] here?
**A.** prevent early cerebral vasospasm following SAH in the rat

**Q.** Which “vasoconstriction of the basilar artery” value [6] does the source give for FR 139317 here?
**A.** significantly inhibited the vasoconstriction of the basilar artery

**Q.** With endothelin as the compound, how does the “hepatic vasculature vasoconstriction and hepatic glucose output” value (liver) read?
**A.** eliciting both sustained vasoconstriction of the hepatic vasculature and a significant increase in hepatic glucose output

**Q.** And the “small intestinal mucosal damage” value (small intestinal mucosa)?
**A.** shown to induce small intestinal mucosal damage in rats in a dose-dependent manner

**Q.** Which “pulmonary vascular resistance and pulmonary arterial pressure” value [2] does the source give for `COc1ccccc1Oc1c(NS(=O)(=O)c2ccc(C(C)(C)C)cc2)nc(-c2ncccn2)nc1OCCO` [Bosentan] here?
**A.** provide protection in a rat hypoxia model of hypertension by lowering the increase in pulmonary vascular resistance and pulmonary arterial pressure

**Q.** And the “ET-1-induced changes in gastric mucosal hemodynamics and gastric ulceration” value [7]?
**A.** antagonist toward the ET-1-induced changes in gastric mucosal hemodynamics as well as on ET-1-induced gastric ulceration
